In data set [1] the test system is hepatocytes. The data set can be described thus: Fatty liver model: measurement of total triglycerides. The format is cell-based, rat. To be noted: high insulin/glucose media; pioglitazone 1.5 μM; to levels similar to healthy conditions. As for the experimental part:
Triglyceride content was assessed using a commercially available colorimetric assay kit (Cayman Triglyceride Colorimetric Assay Kit, Cat #10010303). At the end of the treatment period, cells were collected from the porous membranes by scraping with a rubber policeman and PBS, after which they were centrifuged (2,000×g for 10 minutes at 4° C.). The cell pellets were resuspended in 100 μl of cold diluted Standard Diluent from the triglyceride assay kit and sonicated 20 times at one second bursts. The cell suspension was then centrifuged at 10,000×g for 10 minutes at 4° C. The supernatant was removed and used for the assay as per the manufacturer's protocol and normalized to protein content from the same samples.

In data set [2] the test system is hepatocytes. The data set can be described thus: Fatty liver model: RT-PCR metabolic gene expression. Particulars: high insulin/glucose disease conditions; pioglitazone 1.5 μM.

Take `CCc1ccc(CCOc2ccc(CC3SC(=O)NC3=O)cc2)nc1` (centres unmarked) [Pioglitazone, pioglitazone]: the “total triglyceride content of hepatocytes” value with hepatocytes [1] is “reduced”. Also, the “expression of metabolic genes such as Cyp3A2” value in the data set with hepatocytes [2] is “restored”.

The values are drawn from patent publication US11061016B2, “In vitro model for pathological or physiologic conditions” (HemoShear, LLC, priority 2012, dated 2021).
